# Where two headings read alike, the source gives them in different places.
# Experiments:
# VEGFR I (FLT) = VEGFR I (FLT) (Homo sapiens, UniProt P17948); experiment: Inhibition of FLT-1 kinase activity (33P-ATP, poly-(Glu4Tyr) phosphocellulose filter assay); format: biochemical
# Description: (§1) • Stock solutions • Stock solution A: 3 mmol of ATP in water, pH 7.0 (−70° C.) • Stock solution B: g-33P-ATP 1 mCi/100 μl • Stock solution C: poly-(Glu4Tyr) 10 mg/ml in water Solution for dilutions • Substrate solvent: 10 mmol of DTT, 10 mmol of manganese chloride, 100 mmol of magnesium chloride • Enzyme solution: 120 mmol of tris/HCl, pH 7.5, 10 μM of sodium vanadium oxide
# Then, it is washed several times in 0.1 M phosphoric acid. The filter paper is dried, coated with Meltilex and measured in a microbeta counter.
# VEGFR II (KDR) = VEGFR II (KDR) (Homo sapiens, UniProt P35968); experiment: Inhibition of KDR kinase activity (33P-ATP, poly-(Glu4Tyr) phosphocellulose filter assay); format: biochemical; details: poly-(Glu4Tyr) substrate, 10 minutes at room temperature
# Description: as §1
# In a microtiter plate (without protein binding) that tapers to a point, 10 μl of substrate mix (10 μl of volume of ATP stock solution A+25 μCi of g-33P-ATP (about 2.5 μl of stock solution B)+30 μl of poly-(Glu4Tyr) stock solution C+1.21 ml of substrate solvent), 10 μl of inhibitor solution (substances corresponding to the dilutions, 3% DMSO in substrate solvent as a control) and 10 μl of enzyme solution (11.25 μg of enzyme stock solution (KDR or FLT-1 kinase) are added at 4° C. in 1.25 ml of enzyme solution (dilute). It is thoroughly mixed and incubated for 10 minutes at room temperature. Then, 10 μl of stop solution (250 mmol of EDTA, pH 7.0) is added, mixed, and 10 μl of the solution is transferred to a P 81 phosphocellulose filter. Then, it is washed several times in 0.1 M phosphoric acid. The filter paper is dried, coated with Meltilex and measured in a microbeta counter.
# The IC50 values are determined from the inhibitor concentration, which is necessary to inhibit the phosphate incorporation to 50% of the uninhibited incorporation after removal of the blank reading (EDTA-stopped reaction).
# [1] = FLT-1 kinase, poly-(Glu4Tyr) substrate, 10 minutes at room temperature, read-out: kinase inhibition IC50 VEGFR I (FLT)
# VEGFR II (KDR), sequence (P35968 20-1356, species assumed): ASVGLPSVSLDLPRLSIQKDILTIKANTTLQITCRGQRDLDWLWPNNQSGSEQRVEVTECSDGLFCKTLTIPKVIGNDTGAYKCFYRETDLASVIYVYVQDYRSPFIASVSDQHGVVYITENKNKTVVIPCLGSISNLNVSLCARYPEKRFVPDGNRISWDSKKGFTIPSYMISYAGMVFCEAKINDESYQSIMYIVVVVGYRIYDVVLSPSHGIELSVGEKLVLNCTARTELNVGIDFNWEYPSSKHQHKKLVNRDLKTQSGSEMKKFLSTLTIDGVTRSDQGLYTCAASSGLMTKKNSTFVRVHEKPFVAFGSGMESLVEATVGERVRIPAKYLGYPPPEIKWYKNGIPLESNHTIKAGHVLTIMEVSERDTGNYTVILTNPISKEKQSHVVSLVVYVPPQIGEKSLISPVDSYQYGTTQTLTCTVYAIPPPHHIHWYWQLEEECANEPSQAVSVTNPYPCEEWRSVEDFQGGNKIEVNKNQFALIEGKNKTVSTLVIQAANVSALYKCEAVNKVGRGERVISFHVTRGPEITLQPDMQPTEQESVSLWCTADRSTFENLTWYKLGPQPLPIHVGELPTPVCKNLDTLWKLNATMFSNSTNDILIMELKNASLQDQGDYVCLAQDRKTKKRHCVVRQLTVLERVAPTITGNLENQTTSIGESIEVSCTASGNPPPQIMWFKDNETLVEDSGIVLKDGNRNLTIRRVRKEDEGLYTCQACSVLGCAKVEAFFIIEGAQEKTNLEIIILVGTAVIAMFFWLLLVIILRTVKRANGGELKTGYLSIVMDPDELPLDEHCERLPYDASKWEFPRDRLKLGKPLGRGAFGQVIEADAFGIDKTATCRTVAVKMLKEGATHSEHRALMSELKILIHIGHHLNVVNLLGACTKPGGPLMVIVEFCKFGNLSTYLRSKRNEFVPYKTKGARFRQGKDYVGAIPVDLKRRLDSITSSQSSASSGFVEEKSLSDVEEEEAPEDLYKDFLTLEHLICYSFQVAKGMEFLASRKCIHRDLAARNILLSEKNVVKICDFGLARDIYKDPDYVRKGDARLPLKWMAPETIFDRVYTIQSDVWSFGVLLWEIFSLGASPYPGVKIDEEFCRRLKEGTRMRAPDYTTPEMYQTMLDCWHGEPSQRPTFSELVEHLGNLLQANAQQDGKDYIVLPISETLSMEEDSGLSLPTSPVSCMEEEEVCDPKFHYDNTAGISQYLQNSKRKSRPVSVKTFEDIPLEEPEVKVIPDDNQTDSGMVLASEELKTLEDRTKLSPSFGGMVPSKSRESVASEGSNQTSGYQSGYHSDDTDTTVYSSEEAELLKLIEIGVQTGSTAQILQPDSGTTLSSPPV
# VEGFR I (FLT), sequence (P17948 27-1338, species assumed): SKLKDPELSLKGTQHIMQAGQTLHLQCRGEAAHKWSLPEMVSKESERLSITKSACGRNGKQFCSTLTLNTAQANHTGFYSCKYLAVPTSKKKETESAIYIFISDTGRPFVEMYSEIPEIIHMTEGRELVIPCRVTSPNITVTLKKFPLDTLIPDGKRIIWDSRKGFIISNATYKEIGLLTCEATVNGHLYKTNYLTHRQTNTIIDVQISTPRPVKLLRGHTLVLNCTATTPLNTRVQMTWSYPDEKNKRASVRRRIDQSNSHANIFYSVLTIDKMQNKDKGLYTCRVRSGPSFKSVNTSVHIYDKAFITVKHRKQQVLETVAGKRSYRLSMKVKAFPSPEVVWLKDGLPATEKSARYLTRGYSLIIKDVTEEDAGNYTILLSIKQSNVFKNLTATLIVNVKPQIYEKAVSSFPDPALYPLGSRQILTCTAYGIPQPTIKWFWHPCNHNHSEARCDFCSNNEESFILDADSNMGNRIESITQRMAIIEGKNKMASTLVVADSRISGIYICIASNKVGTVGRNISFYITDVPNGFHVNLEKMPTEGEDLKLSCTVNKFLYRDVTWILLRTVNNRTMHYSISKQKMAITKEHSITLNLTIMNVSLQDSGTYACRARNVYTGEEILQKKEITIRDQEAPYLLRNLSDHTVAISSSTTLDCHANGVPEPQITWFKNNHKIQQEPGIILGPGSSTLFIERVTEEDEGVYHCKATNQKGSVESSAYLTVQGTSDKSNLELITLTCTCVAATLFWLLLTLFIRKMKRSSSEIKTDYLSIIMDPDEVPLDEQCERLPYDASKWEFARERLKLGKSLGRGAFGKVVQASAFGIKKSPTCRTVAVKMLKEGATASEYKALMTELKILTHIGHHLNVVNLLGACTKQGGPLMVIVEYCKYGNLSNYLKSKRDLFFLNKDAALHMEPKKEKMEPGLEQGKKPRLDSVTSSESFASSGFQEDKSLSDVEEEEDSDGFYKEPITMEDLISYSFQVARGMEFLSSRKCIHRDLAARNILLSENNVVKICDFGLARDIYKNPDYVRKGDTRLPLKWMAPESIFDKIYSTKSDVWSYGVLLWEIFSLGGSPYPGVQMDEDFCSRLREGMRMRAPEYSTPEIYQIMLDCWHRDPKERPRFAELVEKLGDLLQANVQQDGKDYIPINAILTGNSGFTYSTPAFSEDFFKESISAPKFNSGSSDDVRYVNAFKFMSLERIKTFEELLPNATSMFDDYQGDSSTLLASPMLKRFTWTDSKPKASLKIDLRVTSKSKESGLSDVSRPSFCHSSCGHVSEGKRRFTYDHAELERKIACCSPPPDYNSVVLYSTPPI
Compound,IC50 (VEGFR I (FLT)),IC50 (VEGFR II (KDR)),IC50 (VEGFR I (FLT); [1]),melting point
CCCc1ccc(NC(=O)c2ccccc2CCc2ccncc2)cc1 [Example 1.1],200 nM,200 nM,–,–
O=C(NCC1CCCCC1)c1ccccc1CCc1ccncc1 [Example 1.31],–,400 nM,200 nM,105 to 107 °C
COc1ccc(/C=C\c2ccccc2C(=O)Nc2ccc(Cl)cc2)cc1 [Example 1.57],–,200 nM,200 nM,137.9 °C
O=C(Nc1ccc(Cl)cc1)c1cccc(C#Cc2cccnc2)c1 [Example 1.54],–,500 nM,50 nM,179 °C

# Next, values leading:
IC50 (VEGFR I (FLT)),IC50 (VEGFR II (KDR)),IC50 (VEGFR I (FLT); [1]),melting point,Compound
–,500 nM,2000 nM,–,COc1ccc(/C=C\c2ccccc2C(=O)Nc2cnc3ccccc3c2)cc1 [Example 1.60]
–,300 nM,200 nM,–,CCCCCCCNC(=O)c1ccccc1/C=C\c1ccc(OC)cc1 [Example 1.64]
–,300 nM,2000 nM,–,COc1ccc(CCc2ccccc2C(=O)Nc2cnc3ccccc3c2)cc1 [Example 1.89]
–,5000 nM,–,113.7 °C,CCCc1ccc(NC(=O)c2ccccc2CCc2ccc(OC)cc2)cc1 [Example 1.67]

# Source: patent publication US20110009447A1, “Substituted Benzoic Acid Amides and Use thereof for the Inhibition of Angiogenesis” (priority 2001, published 2011)
